In one data set the test system is human eye. The data set can be described thus: Irritation of FP to the human eye (general statement). The format is in vivo. The settings on record: concentration of FP above 0.2%. The source says: Under the coexistence with β-CD or γ-CD, the solubility of FP in a high concentration can be attained and the decrement of the above-mentioned irritation can be attained even by the use of FP in a high concentration. Moreover, an ophthalmic solution containing FP stable for a long term is obtained by coexisting FP with β-CD or γ-CD.

The subject of data set [1] is carrageenan-induced edema. The settings on record: administered orally, rat; cited from earlier work.
Data set [2] relates to biosynthesis of PGs from arachidonic acid. The settings on record: lung homogenate of guinea pig; cited from earlier work.
The test system of data set [3] is intraocular pressure elevation and aqueous humor protein increase. The settings on record: rabbits; arachidonic acid; suspensions, FP as aqueous solution; Invest. Ophthalmol., 15(10), 841 to 844 (1976); cited from earlier work.
For data set [4] the following is noted: cited from earlier work.
The test system of a further data set is quinine or PGs system. The settings on record: compared with known nonsteroidal anti-inflammatory agents; cited from earlier work.
The conditions of data set [5]: cited from earlier work. The source holds these as a separate data set.
For data set [6], the system named is eye of the rabbits (pupillary diameter). The data set can be described thus: Mydriasis effect of atropine (Test Example 4). It is filed as in vivo, rabbit. The settings on record: 1 w/v % atropine sulfate, 40 μl. How it is done: Mydriasis induced by atropine instillation was first observed, assuming that a mydriasis treatment is usually performed prior to operation.
The test was performed using 5 rabbits, and a drop (40 μl.) of a 1 w/v % solution of atropine sulfate in physiological salt solution was instilled to the right eye of the rabbits, and the change of status of the eye with lapse of time was observed by the photographic determination of pupillary diameter. The pupillary diameter difference [(the pupillary diameter at each time after instillation)--(the pupillary diameter before instillation)] and rate of mydriasis (%), which was calculated according to the following formula, were determined. [formula] The pupillary diameter difference and the rate of mydriasis in FIG. 5 are the mean values as to 5 rabbits.

A further data set has as its system blood-aqueous barrier. The settings on record: adding IM instillation vs adding no IM instillation; cited from earlier work.
For data set [7] the following is noted: oil preparation; cited from earlier work.
The subject of another data set is eye ball. The settings on record: oil preparation, topical instillation to the eye ball; cited from earlier work.
In a further data set the test system is intraocular pressure. The settings on record: subconjunctival injection, cited from earlier work.

Counter-ions that a name gives are not always drawn. Like-named read-outs stand apart in the source and are kept apart here.

The source of these data is patent publication US4474811A, “Anti-inflammatory ophthalmic solution and process for preparing the same” (Kakenyaku Kako Co., Ltd., priority 1981, dated 1984).

Regarding `CC(C(=O)O)c1ccc(-c2ccccc2)c(F)c1` (centres unmarked) [FP, 2-(2-fluoro-4-biphenylyl)propionic acid], the “irritation to the human eye” value in the data set with human eye is recorded as “enhanced”. In data set [1], the “anti-inflammatory effect relative to aspirin” value is recorded as 250 times and the “anti-inflammatory effect relative to indomethacin” value is 14 times. Further, in data set [2], the “inhibitory effect on biosynthesis of PGs relative to aspirin” value was 2,280 times and the “inhibitory effect on biosynthesis of PGs relative to indomethacin” value is reported as 10 times. Besides, the “inhibitory effect on the intraocular pressure elevation and aqueous humor protein increase” value in [3] is listed as “particularly strong inhibitory effects”. Besides, the solubility result in [4] is “limited solubility”. Further, in the data set with quinine or PGs system, the “strength of inhibitory effect” value is reported as “the strongest among known nonsteroidal anti-inflammatory agents”.

For `CC(=O)Oc1ccccc1C(=O)O` [aspirin], the side effect entry in data set [5] (in vivo, po) is given as “digestive trouble”.

Consider `CN1[C@@H]2CC[C@H]1C[C@@H](OC(=O)C(CO)c1ccccc1)C2` (some centres unmarked) [atropine, atropine sulfate], for which the “time to maximum pupillary diameter” value in [6] is listed as “one”. In addition, in data set [6] (even after 6 hours from the instillation), the “change in the maximum pupillary diameter” value is “no change”.

Turning to `COc1ccc2c(c1)c(CC(=O)O)c(C)n2C(=O)c1ccc(Cl)cc1` [indomethacin], the “inhibition on increase of permeability of blood-aqueous barrier after operation, relative to no IM instillation” value in the data set on blood-aqueous barrier is “about 3 times”. Moreover, the “inhibitory effect on the intraocular pressure elevation and aqueous humor protein increase” value in data set [3] was “particularly strong inhibitory effects”. Besides, the side effect entry in [5] (oral administration in large amounts) was “digestive trouble”. Besides, the “stability of the preparation” value in data set [7] is given as “poor”. The feeling in use entry with eye ball was “bad”.

As to `COc1ccc(-c2[nH]c3ccccc3c2-c2ccc(OC)cc2)cc1` [indoxole], the “inhibitory effect on the intraocular pressure elevation and aqueous humor protein increase” value in data set [3] is recorded as “particularly strong inhibitory effects”.

As for `Cc1ccc(Cl)c(Nc2ccccc2C(=O)O)c1Cl` [meclofenamic acid], the “inhibitory effect on the intraocular pressure elevation and aqueous humor protein increase” value in data set [3] is “particularly strong inhibitory effects”.

Take polyphloretin phosphate: the “effect on intraocular pressure” value with intraocular pressure (glaucomatocyclitic crisis) is “effect of decreasing the intraocular pressure”. Moreover, the pain entry in the data set on intraocular pressure is “causes pain to a patient and eye pain or smart feeling is strong”.
